In the supplement of paper PMC10307832:

Experiments:
Test in all cases: relative viability (nuclei count vs DMSO), 5 days (fraction); higher = more cells survive
Ruboxistaurin + OSI-027 = compound: CN(C)C[C@@H]1CCn2cc(c3ccccc32)C2=C(C(=O)NC2=O)c2cn(c3ccccc23)CCO1 [Ruboxistaurin] + COc1cccc2cc(-c3nc([C@H]4CC[C@H](C(=O)O)CC4)n4ncnc(N)c34)[nH]c12 [OSI-027] (partner 0.5 µM)
Summary of the method: (§1)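 Dosing by pin tool came one day after lung cancer cell lines were seeded in 1536-well plates, using either one drug or a fixed anchor-drug dose plus five library-drug doses (not always all listed) in √10 steps. After 5 days, nuclei were counted on 4× images. Relative viability is treated-well nuclei count divided by vehicle-well nuclei count, and values are medians of duplicate plates.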

[1] = compound: CN(C)C[C@@H]1CCn2cc(c3ccccc32)C2=C(C(=O)NC2=O)c2cn(c3ccccc23)CCO1 [Ruboxistaurin] + N=C(N)NC(=N)NCCc1ccccc1 [Phenformin] (partner 250 µM)
Summary of the method: as §1

[2] = compound: CN(C)C[C@@H]1CCn2cc(c3ccccc32)C2=C(C(=O)NC2=O)c2cn(c3ccccc23)CCO1 [Ruboxistaurin] + COc1cc2c(Oc3ccc(NC(=O)C4(C(=O)Nc5ccc(F)cc5)CC4)cc3F)ccnc2cc1OCCCN1CCOCC1 [Foretinib] (partner 0.25 µM)
Summary of the method: as §1

[3] = compound: CN(C)C[C@@H]1CCn2cc(c3ccccc32)C2=C(C(=O)NC2=O)c2cn(c3ccccc23)CCO1 [Ruboxistaurin] + Cc1nc(NC(=O)N2CCC[C@H]2C(N)=O)sc1-c1ccnc(C(C)(C)C(F)(F)F)c1 [Alpelisib] (partner 2 µM)
Summary of the method: as §1

[4] = compound: CN(C)C[C@@H]1CCn2cc(c3ccccc32)C2=C(C(=O)NC2=O)c2cn(c3ccccc23)CCO1 [Ruboxistaurin] + C[C@@H](Oc1cc(-c2cnn(C3CCNCC3)c2)cnc1N)c1c(Cl)ccc(F)c1Cl [Crizotinib] (partner 1 µM)
Summary of the method: as §1

Cell Line | relative viability (Ruboxistaurin + OSI-027; first compound 0.08 µM) | relative viability (Ruboxistaurin + OSI-027; first compound 0.8 µM) | relative viability (Ruboxistaurin + OSI-027; first compound 2.53 µM) | relative viability (Ruboxistaurin + OSI-027; first compound 8 µM) | relative viability ([1]; first compound 0.08 µM) | relative viability ([1]; first compound 0.8 µM) | relative viability ([1]; first compound 2.53 µM) | relative viability ([1]; first compound 8 µM) | relative viability ([2]; first compound 0.08 µM) | relative viability ([2]; first compound 0.8 µM) | relative viability ([2]; first compound 2.53 µM) | relative viability ([2]; first compound 8 µM) | relative viability ([3]; first compound 0.08 µM) | relative viability ([3]; first compound 0.8 µM) | relative viability ([3]; first compound 2.53 µM) | relative viability ([3]; first compound 8 µM) | relative viability ([4]; first compound 0.08 µM) | relative viability ([4]; first compound 0.8 µM) | relative viability ([4]; first compound 2.53 µM) | relative viability ([4]; first compound 8 µM)
201T | 0.694 | 0.723 | 0.675 | 0.59 | 0.49 | 0.433 | 0.449 | 0.426 | 1.17 | 1.02 | 1.19 | 0.995 | 1.03 | 1.01 | 1.01 | 1.01 | 1.05 | 0.972 | 1.08 | 1.05
A549 | – | – | – | – | 0.199 | 0.162 | 0.221 | 0.175 | 1.04 | 0.935 | 1.06 | 0.962 | 0.75 | 0.562 | 0.944 | 0.501 | 0.751 | 0.631 | 0.862 | 0.679
A-427 | 0.506 | 0.406 | 0.458 | 0.343 | 0.398 | 0.314 | 0.327 | 0.273 | 1.01 | 0.952 | 0.928 | 0.659 | 1.07 | 0.996 | 1.02 | 0.874 | 1.01 | 0.676 | 0.911 | 0.732
ABC-1 | 0.692 | 0.386 | 0.481 | 0.331 | 0.252 | 0.245 | 0.182 | 0.233 | 1.21 | 1.13 | 1.26 | 1.11 | 1.35 | 1.13 | 1.07 | 0.839 | 1.41 | 0.45 | 1.29 | 0.784
BEN | 0.347 | 0.31 | 0.262 | 0.286 | 0.26 | 0.292 | 0.248 | 0.245 | 0.725 | 0.722 | 0.712 | 0.49 | 1.06 | 1.07 | 0.973 | 0.787 | 0.92 | 0.818 | 0.894 | 0.658
CAL-12T | 0.797 | 0.449 | 0.69 | 0.391 | 0.597 | 0.585 | 0.568 | 0.563 | 1.28 | 1.18 | 1.16 | 1.16 | 1.47 | 1.17 | 1.27 | 1.13 | 0.585 | 0.491 | 0.751 | 0.746
COR-L23 | 0.759 | 0.637 | 0.712 | 0.391 | 0.408 | 0.41 | 0.519 | 0.493 | 1.06 | 0.951 | 1.11 | 1.05 | 0.804 | 0.814 | 0.73 | 0.695 | 0.725 | 0.621 | 0.689 | 0.777
COR-L 105 | 0.881 | 0.565 | 0.62 | 0.443 | 0.599 | 0.436 | 0.446 | 0.4 | 1.37 | 0.826 | 1.1 | 0.87 | 1.17 | 1.09 | 0.911 | 0.706 | 0.8 | 0.828 | 0.868 | 0.664
ChaGo-K-1 | 0.658 | 0.572 | 0.618 | 0.449 | 0.47 | 0.525 | 0.532 | 0.412 | 0.916 | 0.888 | 0.965 | 0.912 | – | – | – | – | 1.21 | 1.05 | 1.11 | 1.2
EKVX | 0.734 | 0.751 | 0.709 | 0.641 | 0.249 | 0.221 | 0.234 | 0.26 | 0.898 | 0.694 | 0.848 | 0.738 | 0.998 | 0.807 | 0.858 | 0.745 | 1.09 | 0.989 | 0.983 | 0.895
EMC-BAC-2 | 0.399 | 0.343 | 0.362 | 0.258 | 0.601 | 0.469 | 0.505 | 0.438 | 1.03 | 0.872 | 1.03 | 0.51 | 0.75 | 0.703 | 0.733 | 0.612 | 0.741 | 0.713 | 0.715 | 0.68
EPLC-272H | 0.308 | 0.266 | 0.298 | 0.249 | 0.338 | 0.301 | 0.297 | 0.349 | 0.853 | 0.548 | 0.703 | 0.472 | 1.1 | 0.807 | 0.901 | 0.846 | 0.926 | 0.793 | 0.917 | 0.932
H3255 | 0.686 | 0.501 | 0.633 | 0.577 | 0.354 | 0.326 | 0.345 | 0.352 | 0.849 | 0.867 | 0.879 | 0.876 | 0.738 | 0.698 | 0.654 | 0.521 | 1.01 | 0.835 | 0.89 | 0.809
HARA | 0.677 | 0.356 | 0.488 | 0.305 | 0.493 | 0.404 | 0.535 | 0.475 | 0.842 | 0.865 | 0.993 | 0.813 | 1.05 | 0.797 | 0.914 | 0.481 | 1.07 | 0.919 | 1.18 | 1.03
HCC-15 | 0.701 | 0.617 | 0.623 | 0.582 | 0.513 | 0.46 | 0.486 | 0.504 | 1.1 | 0.927 | 1.12 | 1.09 | 0.867 | 0.714 | 0.909 | 0.743 | 0.815 | 0.794 | 0.754 | 0.845
HCC-44 | 0.576 | 0.403 | 0.481 | 0.59 | 0.204 | 0.193 | 0.185 | 0.19 | – | – | – | – | 0.765 | 0.715 | 0.831 | 0.755 | 0.756 | 0.674 | 0.867 | 0.853
